{"source": "patent US20210038579A1", "about": "“Treatment Of Patients With Classic Fabry Disease” (Amicus Therapeutics, Inc., priority 2018, published 2021)", "test_in_all_cases": "HEK assay: α-Gal A activity in HEK-293 cell lysate with migalastat", "format_in_all_cases": "cell-based", "key": {"[1]": {"target": "T1, α-Gal A mutant form p.Cys174Arg (c.520 T > C) (Homo sapiens, UniProt P06280, C174R)", "T1 construct": "expressed in transfected cells; host or cells: HEK-293", "T1 sequence (P06280 32-429 C174R)": "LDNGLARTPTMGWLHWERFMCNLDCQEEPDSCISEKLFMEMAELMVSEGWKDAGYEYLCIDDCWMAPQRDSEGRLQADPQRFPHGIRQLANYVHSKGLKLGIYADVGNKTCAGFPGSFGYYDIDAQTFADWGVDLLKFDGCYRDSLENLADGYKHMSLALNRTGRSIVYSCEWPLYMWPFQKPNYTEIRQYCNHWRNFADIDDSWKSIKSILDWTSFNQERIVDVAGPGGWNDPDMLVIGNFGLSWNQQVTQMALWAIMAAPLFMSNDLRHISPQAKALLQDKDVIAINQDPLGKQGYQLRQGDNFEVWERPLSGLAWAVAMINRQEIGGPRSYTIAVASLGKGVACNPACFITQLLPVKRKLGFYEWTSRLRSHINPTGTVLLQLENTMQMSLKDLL", "outline": "(§1)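 HEK-293 cells are transfected transiently with cDNA for each missense or small in-frame indel α-Gal A mutant. They are cultured ±migalastat across 17 nM to 1 mM over 4 to 5 days, after which lysate enzyme is quantified fluorogenically (4-MU-α-Gal) or by immunoblot.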"}, "[2]": {"target": "T2, α-Gal A mutant form p.Ala156Thr (c.466 G > A) (Homo sapiens, UniProt P06280, A156T)", "T2 construct": "expressed in transfected cells; host or cells: HEK-293", "T2 sequence (P06280 32-429 A156T)": "T1 sequence (P06280 32-429 C174R) with A125T, R143C", "outline": "as §1"}, "[3]": {"target": "T3, α-Gal A mutant form p.Gly373Ser (c.1117 G > A) (Homo sapiens, UniProt P06280, G373S)", "T3 construct": "expressed in transfected cells; host or cells: HEK-293", "T3 sequence (P06280 32-429 G373S)": "T1 sequence (P06280 32-429 C174R) with R143C, G342S", "outline": "as §1"}, "[4]": {"target": "T4, α-Gal A mutant form p.Asp33Gly (c.98 A > G) (Homo sapiens, UniProt P06280, D33G)", "T4 construct": "expressed in transfected cells; host or cells: HEK-293", "T4 sequence (P06280 32-429 D33G)": "T1 sequence (P06280 32-429 C174R) with D2G, R143C", "outline": "as §1"}, "[5]": {"target": "T5, α-Gal A mutant form p.Arg356Trp (c.1066 C > T) (Homo sapiens, UniProt P06280, R356W)", "T5 construct": "expressed in transfected cells; host or cells: HEK-293", "T5 sequence (P06280 32-429 R356W)": "T1 sequence (P06280 32-429 C174R) with R143C, R325W", "outline": "as §1"}, "[6]": {"conditions": "+10 μM migalastat, HEK-293 cell lysate, mean ± SEM, n = 20"}, "[7]": {"conditions": "HEK293, 10 μM migalastat minus baseline, read-out: Absolute increase at 10 μM (% WT)"}}, "note": "Changes are numbered by the printed parent chain.", "data": [{"smiles": "OC[C@H]1NC[C@H](O)[C@@H](O)[C@H]1O", "note": "[migalastat]", "values": [{"measurement": "α-Gal A activity at 10 μM (fold over baseline)", "setting": "[1]; 10 μM migalastat", "result": 3.53, "unit": "fold over baseline"}, {"measurement": "+Migalastat α-Gal A activity", "setting": "[1]; [6]", "result": "16505 ± 393", "unit": "nmol/mg/h"}, {"measurement": "+Migalastat α-Gal A activity % WT", "setting": "[1]; [6]", "result": "51.6 ± 2.0", "unit": "% WT"}, {"measurement": "activation at 10 µM", "setting": "[1]; [7]", "result": 37.4, "unit": "%"}, {"measurement": "α-Gal A activity at 10 μM (fold over baseline)", "setting": "[2]; 10 μM migalastat", "result": 7.75, "unit": "fold over baseline"}, {"measurement": "+Migalastat α-Gal A activity", "setting": "[2]; [6]", "result": "7034 ± 289", "unit": "nmol/mg/h"}, {"measurement": "+Migalastat α-Gal A activity % WT", "setting": "[2]; [6]", "result": "21.9 ± 0.9", "unit": "% WT"}, {"measurement": "activation at 10 µM", "setting": "[2]; [7]", "result": 19.1, "unit": "%"}, {"measurement": "α-Gal A activity at 10 μM (fold over baseline)", "setting": "[3]; 10 μM migalastat", "result": 3.32, "unit": "fold over baseline"}, {"measurement": "+Migalastat α-Gal A activity", "setting": "[3]; [6]", "result": "5128 ± 288", "unit": "nmol/mg/h"}, {"measurement": "+Migalastat α-Gal A activity % WT", "setting": "[3]; [6]", "result": "15.7 ± 0.8", "unit": "% WT"}, {"measurement": "activation at 10 µM", "setting": "[3]; [7]", "result": 10.9, "unit": "%"}, {"measurement": "α-Gal A activity at 10 μM (fold over baseline)", "setting": "[4]; 10 μM migalastat", "result": 2.42, "unit": "fold over baseline"}, {"measurement": "+Migalastat α-Gal A activity", "setting": "[4]; [6]", "result": "24033 ± 865", "unit": "nmol/mg/h"}, {"measurement": "+Migalastat α-Gal A activity % WT", "setting": "[4]; [6]", "result": "70.6 ± 2.4", "unit": "% WT"}, {"measurement": "activation at 10 µM", "setting": "[4]; [7]", "result": 41.3, "unit": "%"}, {"measurement": "α-Gal A activity at 10 μM (fold over baseline)", "setting": "[5]; 10 μM migalastat", "result": 4.42, "unit": "fold over baseline"}, {"measurement": "+Migalastat α-Gal A activity", "setting": "[5]; [6]", "result": "15570 ± 830", "unit": "nmol/mg/h"}, {"measurement": "+Migalastat α-Gal A activity % WT", "setting": "[5]; [6]", "result": "49.1 ± 2.6", "unit": "% WT"}, {"measurement": "activation at 10 µM", "setting": "[5]; [7]", "result": 38.1, "unit": "%"}]}]}
